Laboratory results published in EP3501511A1, “MEANS FOR PREVENTING AND TREATING BRAIN METASTASIS” (Fundación Centro Nacional De Investigaciones Oncológicas …, priority 2017, dated 2019).

Columns and labels:
B16/F10-BrM [1] = test: cKO-Stat3 brain slice cultures with established metastases treated with 4OH-Tamoxifen (BLI); format: cell-based, mouse; conditions: 4OH-Tamoxifen 1 µM; n≥ 8 brain slices per condition, P=0.012
Source text: (§1) To test the functional contribution of pStat3+ RA in brain metastasis we generated GFAP-Cre/ERT2;Stat3loxP/loxP (cKO-Stat3) mice in which syngeneic brain metastatic (BrM) cells, labeled with Luciferase and Gfp (Green fluorescent protein), were intracardiacally inoculated. We used two BrM models including lung adenocarcinoma model (482N1) and melanoma model (B16/F10-BrM). These syngeneic models have gained brain tropism while retaining an aggressive extracranial metastatic potential (Valiente, M. et al. Cell 156, 1002-1016 (2014) and also as disclosed herein). […] We confirmed Stat3 depletion from RA under these experimental conditions (Fig.2). […] In order to analyze the effect of Stat3 deletion in RA once brain metastases have developed, and given the limited time available in vivo before mice reach the humane endpoint, we cultured ex vivo cKO-Stat3 brain slices containing 2 weeks old lesions grown in mice (Fig. 4A). […]
(§2) Treatments to brain slices were given once during the experiment (4OH-Tmx, 1 µM, Sigma-Aldrich, ref. H7904; WP1066, 10 µM, Merck, ref. 573097; Doxycycline, 1 µg/ml, Sigma-Aldrich, ref. D9891; silibinin, 100 µM, Sigma-Aldrich, ref. S0417) by adding them to the media. […] Analysis of the knockdown level in H2030-BrM (Fig. 4F) was analyzed in a homogenate containing the mouse brain tissue and human cancer cells. […]

482N1 = test: as above; format: cell-based, mouse; conditions: 4OH-Tamoxifen 1 µM; n≥ 4 brain slices per condition, P=0.013
Source text: as §1, §2

Mouse astrocytes = test: Astrosphere assay; format: cell-based
Protocol: Mouse astrocytes were treated with conditioned media from BrM cell lines or with recombinant mouse protein including Egf (0.01 µg/ml, R&D Systems, ref. 2028-EG- 200), Mif (0.1 µg/ml, R&D Systems, ref. 1978-MF-0257CF) and Tgfα (0.1 µg/ml, R&D Systems, ref. 239-A-100) during 96 hours. After this treatment 10^4 astrocytes were seeded in low attachment plates and incubated for seven days in the presence of the same media to evaluate the ability to form astrospheres. Conditioned media from BrM cell lines were obtained after 3 days incubation of cancer cells in DMEM supplemented with 0.25 % FBS, 2 mM L-Glutamine, 100 IU/ml penicillin/streptomycin and […] amphotericin B. After being collected, the media was filtered and added to astrocytes. Conditioned media from astrospheres was collected, filtered and added to activated CD8 cells (Fig. 7P) or wild type brain slices (Fig. 7T).

B16/F10-BrM [2] = test: Tamoxifen-induced Stat3 depletion in reactive astrocytes of cKO-Stat3 mice inoculated with B16/F10-BrM; format: in vivo
Source text: To test the functional contribution of pStat3+ RA in brain metastasis we generated GFAP-Cre/ERT2;Stat3loxP/loxP (cKO-Stat3) mice in which syngeneic brain metastatic (BrM) cells, labeled with Luciferase and Gfp (Green fluorescent protein), were intracardiacally inoculated. We used two BrM models including lung adenocarcinoma model (482N1) and melanoma model (B16/F10-BrM). […] In order to analyze the effect of Stat3 deletion in RA once brain metastases have developed, and given the limited time available in vivo before mice reach the humane endpoint, we cultured ex vivo cKO-Stat3 brain slices containing 2 weeks old lesions grown in mice (Fig. 4A).
All animal experiments were performed in accordance with a protocol approved by the CNIO, Instituto de Salud Carlos III and Comunidad de Madrid Institutional Animal Care and Use Committee. Athymic nu/nu (Harlan), and C57BL/6 mice 4-6 weeks of age were used. cKO-Stat3 was generated by breeding GFAP-CRE/ERT2 (B6.Cg- Tg(GFAP-cre/ERT2)505Fmv/J, Jackson Labs, ref. 012849) with Stat3loxP/loxP16.
Brain metastatic derivative of a syngeneic B16/F10 model (B16/F10-BrM) was established according to a previous protocol (Bos, P. D. et al. Nature 459, 1005-1009 (2009); Nguyen, D. X. et al. Cell 138, 51-62 (2009)). Brain colonization assays were performed injecting 100 µl of PBS into the left ventricle containing 100,000 cancer cells. Brain colonization was analyzed in vivo and ex vivo by bioluminescence imaging. Anesthetized mice (Isofluorane) were injected retro-orbitally with D-Luciferin (150 mg/kg) and imaged with an IVIS Spectrum Xenogen machine (Caliper Life Sciences). Bioluminescence analysis was performed using Living Image software, version 3. […] Silibinin in the formula of Legasil® was administered by oral gavage daily the same day cancer cells were inoculated (200mg/kg) and until mice reached the endpoint of the experiment.

[3] = Tamoxifen treated cKO-Stat3 mice, n=7 metastases

Which results are given for `CC/C(=C(\c1ccc(O)cc1)c1ccc(OCCN(C)C)cc1)c1ccccc1` [4OH-Tamoxifen]?
growth of established metastases scored with BLI (B16/F10-BrM [1]): impaired the growth of established metastases; growth of established metastases scored with BLI (482N1): impaired the growth of established metastases; formation of astrospheres (Mouse astrocytes; cKO-Stat3 derived astrocytes induced by the cytokine cocktail, 4OH-Tamoxifen 1µM): unable to generate astrospheres

What does the source list for `CC/C(=C(\c1ccccc1)c1ccc(OCCN(C)C)cc1)c1ccccc1` [Tamoxifen]?
metastases of Score 0 (no pStat3 signal) in the surrounding microenvironment (B16/F10-BrM [2]; Tamoxifen treated cKO-Stat3 mice): 66.7%; metastases of Score 1 (low pStat3 signal) in the surrounding microenvironment (B16/F10-BrM [2]; [3]): 22.2%; metastases of Score 2 (high pStat3 signal) in the surrounding microenvironment (B16/F10-BrM [2]; [3]): 11.1%; CD74+/Iba1+ cells infiltrating metastasis (B16/F10-BrM [2]; cKO-Stat3 brains treated with tamoxifen): less CD74+/lba1+ cells infiltrating metastasis

Which formation of astrospheres (Mouse astrocytes; primary astrocytes in the presence of the cytokine cocktail (Egf, Tgfα, Mif)) does the source give for `C[C@H](NC(=O)/C(C#N)=C/c1cccc(Br)n1)c1ccccc1` [WP1066] here?
Its formation of astrospheres is “impairs the formation of astrospheres”.
